Reference: patent US20230111672A1, “COMPOSITIONS AND METHODS FOR PRODUCTION OF RECOMBINANT ADENO-ASSOCIATED VIRUS” (The Regents of the University of California, priority 2020, published 2023)

Key:
Format in all cases: cell-based, human
HEK293 cells = assay: rAAV titer by qPCR at 96 hrs post transfection, rAAV packaging in HEK293 cells; details: HEK293, thymidine added 24 hrs post transfection, harvest at 96 hrs
Procedure: To assess the generality of the result, HEK293 cells were tested, using a different packaging method than that used for HEK293T cells. HEK293 cells were seeded at high concentration and incubated for 72 hrs to reach 100% confluency and then transfected with plasmids. Thymidine was added 24 hrs post transfection, and pellets were harvested at 96 hrs post transfection (FIG. 4).
FIG. 5. HEK293 Cells were seeded at 1.0×10^5 cell/cm′ into 10 cm′ cell culture dish and transfected with the plasmids for rAAV packaging. Thymidine was treated at 24 hrs post transfection and cell pellets were harvested at 96 hrs post transfection. rAAV titer was measured by qPCR in the same method of FIG. 3. Error bars, mean±SD.

HEK 293T cells = assay: Cell cycle arrest by thymidine treatment, flow cytometry with DAPI or EdU incorporation; details: 4 mM thymidine, 24 hrs post treatment
Procedure: HEK 293T cells were treated with thymidine and analyzed using flow cytometry with DAPI (4′,6-diamidino-2-phenylindole) or EdU (5-ethynyl-2′-deoxyuridine) incorporation at 24 hrs post treatment.
FIG. 1A-1B. Verification of cell cycle arrest by thymidine treatment. HEK293T cells were split into 10 cm′ cell culture dishes at 3.0e6 cells/plate. Thymidine stock was prepared with molecular biology grade distilled water at a concentration of 200 mM. The final concentration of thymidine in the culture medium was 4 mM. Two hrs before harvest, cells were incubated with EdU and were harvested for flow cytometry. DAPI staining and EdU assay were performed in accordance with the manufacturer's protocol.

HEK293T cells [1] = assay: rAAV titer following transfection with and without pHelper; details: thymidine added at 24 hrs post transfection, harvest at 72 hrs
Source text: Plasmids containing adenoviral genes that promote AAV replication and vector production, such as pHelper, have previously been essential for rAAV packaging. That is, AAV requires co-infection of helper virus or introduction of a DNA-damaging agent to complete life cycle (Yakobson, Koch, and Winocour 1987; Yalklnoglu et al. 1988), functions that in rAAV manufacturing are typically replaced by transfection with a plasmid such as pHelper. The present disclosure provides the use of thymidine as a replacement for pHelper. The positive control cells were transfected with the three plasmids (AAV vector, AAV helper, pHelper) while the negative control cells were transfected without pHelper. In some samples, thymidine was added at 24 hrs post transfection (FIG. 6).
FIG. 6. HEK293T cells were transfected with plasmids in accordance with the indication and then thymidine was added at 24 hrs post transfection. All cells were harvested at 72 hrs post transfection and rAAV titer were determined. Error bars, mean±SD.

HEK293T cells [2] = assay: rAAV titer by qPCR at 72 hrs post transfection, rAAV packaging in HEK293T cells
Procedure: (§1) The effect of thymidine treatment for rAAV packaging was assessed with the following description. rAAV manufacturing in HEK293T cells was achieved by transfecting cells with the transgene (ss-CAG-eGFP), the adenoviral helper plasmid pHelper, and rAAV2(Rep/Cap) helper plasmid in accordance with the standard protocol of PEI (polyethyleneimine) transfection (Ojala et al. 2018). Thymidine was added onto media without media change at 24 or 48 hrs post transfection and then cell pellets were harvested at 72 hrs post transfection (FIG. 2).
(§2) The number of total cells was counted for the evaluation of cell growth prior to harvesting the cell pellet (FIG. 3A). […] Next, cell lysate samples were incubated with Benzonase as well as DNase to remove residual plasmid, and rAAV titer with or without thymidine treatment was determined by quantitative polymerase chain reaction (qPCR) with specific primers for the transgene, eGFP (FIG. 3B). rAAV titer was then normalized to total cell count to compare viral titers in vg/cell (viral genomes/cell) (FIG. 3C).
FIG. 3A-3C. rAAV titer at 72 h with thymidine treatment. HEK293T cells were split into 10 cm′ cell culture dishes at 3.0×10^6 cells/plate and transfected with the plasmids for rAAV packaging. Cell pellets at 72 hrs post transfection were lysed by freezing and thawing and then incubated with Benzonase, followed by DNase. Subsequent Proteinase K digestion released AAV genome ssDNA from the AAV vector, which were subjected into qPCR for measuring rAAV genome copy number. Error bars, mean±SD. *P<0.05, (All statistics are the result of a student's two tailed t-test with paired variance).

HEK293T cells [3] = assay: Total cell count prior to harvesting the cell pellet, rAAV packaging cultures; details: counted prior to harvest at 72 hrs post transfection
Procedure: as §1, §2
FIG. 3A-3C. rAAV titer at 72 h with thymidine treatment. HEK293T cells were split into 10 cm′ cell culture dishes at 3.0×10^6 cells/plate and transfected with the plasmids for rAAV packaging. Cell pellets at 72 hrs post transfection were lysed by freezing and thawing and then incubated with Benzonase, followed by DNase. […]

Question: For `Cc1cn([C@H]2C[C@H](O)[C@@H](CO)O2)c(=O)[nH]c1=O` [thymidine], which “rAAV titer in vg/ml, fold higher than control cells” value (HEK293 cells) is on record?
Answer: Its value is 1.75 fold.

Question: What about the EdU incorporation (HEK 293T cells; EdU 2 hrs before harvest) of the same compound?
Answer: Its EdU incorporation is “no incorporation has occurred”.

Question: What about the “Cell cycle phase of cell population, total DNA stained by DAPI” value (HEK 293T cells; flow cytometry) of the same compound?
Answer: Its value is “predominantly in the S-phase section”.

Question: What about the “rAAV packaging in the absence of pHelper” value (HEK293T cells [1]) of the same compound?
Answer: Its value is “rAAV was packaged in the absence of pHelper only when the thymidine was added”.

Question: What about the “rAAV titer in vg/ml, fold higher than control” value (HEK293T cells [2]; thymidine treatment 24-72h post transfection, qPCR) of the same compound?
Answer: The value was 2.77 fold.

Question: What about the “rAAV titer, fold higher than that on control cells” value (HEK293T cells [2]; thymidine treatment 24-72h post transfection, qPCR, basis not printed (second value after vg/ml)) of the same compound?
Answer: Its value is 5.38 fold.

Question: And the “rAAV titer in vg/ml, fold higher than control” value (HEK293T cells [2]; thymidine treatment 48-72h post transfection, qPCR)?
Answer: Its value is 2.19 fold.

Question: What about the “rAAV titer in vg/cell, fold higher than control” value (HEK293T cells [2]; thymidine treatment 48-72h post transfection, qPCR normalized to total cell count) of the same compound?
Answer: Its value is 3.52 fold.

Question: And the “Total cell count vs control group” value (HEK293T cells [3])?
Answer: The value was “lower cell count than the control group”.
